From patent US9469616B2, “Cyclic compounds and methods of making and using the same” (Cellceutix Corporation, priority 2011, dated 2016)
Converted amounts (≈) assume the structure as drawn. “And” between values parts separate entries of the source, which are not always exact repeats. Equal entries are not always repeated.

Columns and labels:
E. coli (25922) = assay: MIC assay (Table 1); format: cell-based; details: Escherichia coli, isolate 25922
S. aureus (27660) = assay: MIC assay (Table 1); format: cell-based; details: Staphylococcus aureus, isolate 27660
E. faecalis (29212) = assay: MIC assay (Table 1); format: cell-based; details: Enterococcus faecalis, isolate 29212
Protocol: (§1) The compounds are screened for antimicrobial activity against a number of clinically relevant pathogens. Minimum Inhibitory Concentrations (MIC) of each of the compounds are determined using standard procedures for clinical ocular isolates of Ciprofloxacin Susceptible (CS) S. aureus (CSSA), Ciprofloxacin Resistant (CR) S. aureus (CRSA), CS S. epidermidis (CSSE), CR S. epidermidis (CRSE), St. pneumoniae (SP), St. viridans group (SV), Moraxella Species (MS) (including Moraxella catarrhalis), H. influenzae (HI), P. aeruginosa (PA), Serratia marcescens (SM), S. aureus fluoroquinolone-susceptible, S. aureus fluoroquinolone-resistant, S. epidermidis (Coagulase-negative Staphylococcus) fluoroquinolone-susceptible, S. epidermidis (Coagulase-negative Staphylococcus) fluoroquinolone-resistant, and Serratia marcescens.
(§2) On the day of testing, a 640 μg/m (1280 μg/m for Serratia marcescens and Pseudomonas aeruginosa) concentration is prepared from a 1% stock solution in 0.01% acetic acid, 0.2% BSA in polypropylene tubes.
(§3) Ten μl of diluted 10× test agents is added to each well of one row of the 96 well polypropylene plates from column 2 to column 12 (column 1 is a control for bacteria alone, with no peptide). […] The same peptide is in each of the 8 rows. One plate contains dilutions of one test agent and 8 bacterial isolates.
(§4) Ninety μl of the bacterial suspensions is dispensed in each well from column 1 to column 12. Each bacterial isolate is placed in one row of a 96 well polypropylene plate containing the test agents. The plates are placed on shaker at 15 minutes at room temperature, and then incubated at 37° C. overnight. MICs are determined visually as the lowest concentration of drug that inhibits visible bacterial growth.
(§5) Data is expressed as MIC50 in μg/ml. The bacterial isolates were as follows: E. coli (25922); S. aureus (27660); E. faecalis (29212); P. aeruginosa (10145); and K. pneumoniae (13883).

K. pneumoniae (13883) = assay: MIC assay (Table 1); format: cell-based; details: Klebsiella pneumoniae, isolate 13883, read-out: MIC50 K. Pnuemnoiae
Protocol: as §1, §2, §3, §4, §5

P. aeruginosa (10145) = assay: MIC assay (Table 1); format: cell-based; details: Pseudomonas aeruginosa, isolate 10145
Escherichia coli [1] = assay: Antimicrobial activity (MIC) of aryl compounds (Table 2); format: cell-based; details: for MIC: Escherichia coli, Table 2
Excerpt: (§6) A new series of aryl compounds was designed to evaluate the effect of charge and aromatic group hydrophobicity on the biological activity while still maintaining an amphiphilic topology. Four and six cationic charges were investigated, and three different central rings were used to tune the overall hydrophobicity: benzene, naphthalene, and phenylbenzene. The hydrophobicities of the aryl compounds were quantified using reversed-phase HPLC retention times (Rt). The antimicrobial activities (expressed as minimum inhibitory concentration (MIC)) of these compounds were tested against four pathogens, including both Gram-negative and Gram-positive bacteria, and their hemolysis (evaluated in terms of HC50, the lowest concentration that causes 50% hemolysis of red blood cells (RBCs)) was tested against human RBCs.

Staphylococcus aureus [2] = assay: as above; format: cell-based; details: for MIC: Staphylococcus aureus, Table 2, read-out: MIC S. aureus
Excerpt: as §6

human RBCs = format: cell-based; details: 1 h, pH 7.4
Excerpt: as §6
Cytotoxicity of the compounds is also evaluated in a hemolysis assay using human erythrocytes. Pooled whole human blood is centrifuged to separate the red blood cells (RBC). The isolated RBCs are rinsed and diluted in Tris-buffered saline (TBS buffer, pH 7.4) to obtain a 0.22% RBC stock suspension. 5 μL of a Compound stock solution is added to 45 μL of RBC suspension and incubated with shaking for 1 hour at 37° C. At the conclusion of the incubation time, samples are centrifuged and 30 μL of the supernatant is added to 100 μL of water. OD414 measurements are read for hemoglobin concentration. The bee venom peptide melittin is used as a positive control. EC50 values are determined as described above.
Cytotoxicity is also evaluated in a hemolysis assay using isolated human erythrocytes. Pooled whole human blood is centrifuged to separate the red blood cells (RBC). The isolated RBCs are rinsed and diluted in Tris-buffered saline (TBS buffer, pH 7.4) to obtain a 0.22% RBC stock suspension. […] OD405 measurements are read for hemoglobin concentration. […] EC50 values are determined using a four parameter logistic equation: Y=Bottom+(Top−Bottom)/(1+10^((Log EC50−X)*HillSlope)).

NIH/3T3 cells = assay: Cytotoxicity colorimetric assay; format: cell-based; details: Mus musculus, NIH3T3, 1 h, one hour incubation in serum-free media
Protocol: Cytotoxicity of the compounds are evaluated in a colorimetric assay using a transformed human liver cell line (HepG2, HB-8065) and an embryonic mouse cell line (NIH/3T3 cells, CRL-1658). This assay measures the bioreduction of a novel tetrazolium compound to a soluble formazan product by viable cells. HepG2 cells are seeded in 96 well plates at 2×10^4 cells/well in MEM medium with 10% fetal bovine serum (FBS) 24 hours prior to use. NIH/3T3 cells are seeded in 96 well plates at 2×10^4 cells/well in DMEM medium with 10% bovine calf serum (BCS) 24 hours prior to use. Cell monolayers are rinsed in serum-free media and incubated for one hour with a Compound in serum-free media. After incubation, the media is replaced with serum supplemented media and live cells are measured using the Cell Titer 96 Aqueous […] Assay kit (Promega, Madison, Wis.). EC50 values are determined using a four parameter logistic equation: Y=Bottom+(Top−Bottom)/(1+10^((Log EC50−X)*HillSlope)). […] Data is expressed as EC50 in μg/ml. Cytotoxicity is evaluated in a colorimetric assay using a transformed human liver cell line (HepG2, HB-8065) and an embryonic mouse cell line (NIH/3T3 cells, CRL-1658). This assay measures the bioreduction of a novel tetrazolium compound to a soluble formazan product by viable cells. HepG2 cells are seeded in 96 well plates at 3×10^4 cells/well in MEM medium with 10% fetal bovine serum (FBS) 24 hours prior to use. NIH/3T3 cells are seeded in 96 well plates at 2×10^4 cells/well in DMEM medium with 10% bovine calf serum (BCS) 24 hours prior to use. Cell monolayers are rinsed in serum-free media and incubated for one hour with test agent in serum-free media. After incubation, the media is replaced with serum supplemented media and live cells are measured using the Cell Titer 96 Aqueous […] Assay kit (Promega, Madison, Wis.). EC50 values are determined using a four parameter logistic equation: Y=Bottom+(Top−Bottom)/(1+10^((Log EC50−X)*HillSlope)).

RAW 264.7 cells = assay: Cytokine production in RAW 264.7 cells (ELISA); format: cell-based, murine; details: 5.0 μg/mL preincubation 1 hour, LPS 100 ng/mL 18 hours; FIG. 1B
Staphylococcus aureus [3] = details: Data from Thaker, et al., J. Med. Chem., 2011, 54, 2241; cited from earlier work
Escherichia coli [4] = details: Data from Thaker, et al., J. Med. Chem., 2011, 54, 2241; cited from earlier work

Compound | MIC50 (E. coli (25922)) | MIC50 (S. aureus (27660)) | MIC50 (E. faecalis (29212)) | MIC50 (K. pneumoniae (13883)) | MIC50 (P. aeruginosa (10145)) | MIC (Escherichia coli [1]) | Selectivity (HC50/MIC) E. coli (Escherichia coli [1]) | Selectivity (HC50/MIC) S. aureus (Staphylococcus aureus [2]) | MIC (Staphylococcus aureus [2]) | HC50 (human RBCs) | EC50 (NIH/3T3 cells) | LPS-induced TNF production (RAW 264.7 cells) | MIC S. aureus (Staphylococcus aureus [3]) | MIC E. coli (Escherichia coli [4])
NCCCOc1cc(-c2cc(-c3ccccc3)cc(-c3cc(OCCCN)c(OCCCN)c(OCCCN)c3)c2)cc(OCCCN)c1OCCCN [Compound 115] | 6.25 µg/mL (≈ 8.39 µM) | 12.5 µg/mL (≈ 16.8 µM) | > 50 µg/mL | 12.5 µg/mL (≈ 16.8 µM) | 25 µg/mL (≈ 33.6 µM) | 6.25 µg/mL (≈ 8.39 µM) | >160 | >160 | 6.25 µg/mL (≈ 8.39 µM) | >1000 µg/mL | 110 µg/mL (≈ 147 µM) | did not cause any additional increase in TNF production |  | 
NCCCOc1cc(OCCCN)cc(-c2ccc3ccc(-c4cc(OCCCN)cc(OCCCN)c4)cc3c2)c1 [Compound 119] | 25 µg/mL (≈ 43.6 µM) | 12.5 µg/mL (≈ 21.8 µM) | 6.25 µg/mL (≈ 10.9 µM) | 50 µg/mL (≈ 87.3 µM) | 25 µg/mL (≈ 43.6 µM) | 25 µg/mL (≈ 43.6 µM) | 7.8 | 15.6 | 12.5 µg/mL (≈ 21.8 µM) | 195 µg/mL |  | did not cause any additional increase in TNF production |  | 
MSI-78 |  |  |  |  |  |  |  |  |  |  |  |  | 16 µg/mL and 8 to 16 µg/mL | 16 µg/mL and 16 to 32 µg/mL
